The subject of one data set is CYP3A4&5. Description: CYP inhibition in human liver microsomes, testosterone substrate. In kind it is in vitro ADME. Particulars: probe testosterone, read-out: CYP3A4&5 testosterone Inh %.
Data set [1] deals with Cytochrome P450 enzymes (CYPs), especially CYP 2C9 and CYP 3A4. Description: CYP enzyme inhibition, statements in text without method. Conditions: found during development. Type of data set: in vitro ADME.
Data set [2] can be described thus: Metabolic hydrolysis, statement in text without method. Type of data set: in vitro ADME. Particulars: found during development.
Data set [3] in a line: Metabolic stability in pooled human liver microsomes. In kind it is in vitro ADME. Particulars: human liver microsomes 0.5 mg/mL, 1 uM test compound, 37° C.; for T1/2, + NaDPH: with 1 mM NADPH; for half-life at 1 uM: pooled human liver microsomes, without NADPH, read-out: T1/2, no NaDPH. Here is the method:
Pooled human liver microsomes in PBS at a concentration of 0.5 mg/mL was incubated with or without 1 mM NADPH for 70 min at 37° C. Test compound was added after 10 minutes to a final concentration of 1 uM. Samples were withdrawn at 0, 5, 15 and 60 minutes and added to test tubes containing acetonitrile, to stop the reaction, and with terfenadine, used as internal standard. After centrifugation at 10 000×g for 5 minutes the supernatant was diluted 1:1 with 1% formic acid. Samples were separated on a reverse phase column and detected by triple quadrupole MSMS (Agilant model 6540). The concentration of the parent compound at the different time points was measured with an external standard curve using terfenadine as internal standard and the initial metabolic rate in the presence or absence of NADPH calculated.

Data set [4] has as its target T1, human recombinant AT2 receptor (Homo sapiens, UniProt P50052).
T1 sequence (P50052 1-363): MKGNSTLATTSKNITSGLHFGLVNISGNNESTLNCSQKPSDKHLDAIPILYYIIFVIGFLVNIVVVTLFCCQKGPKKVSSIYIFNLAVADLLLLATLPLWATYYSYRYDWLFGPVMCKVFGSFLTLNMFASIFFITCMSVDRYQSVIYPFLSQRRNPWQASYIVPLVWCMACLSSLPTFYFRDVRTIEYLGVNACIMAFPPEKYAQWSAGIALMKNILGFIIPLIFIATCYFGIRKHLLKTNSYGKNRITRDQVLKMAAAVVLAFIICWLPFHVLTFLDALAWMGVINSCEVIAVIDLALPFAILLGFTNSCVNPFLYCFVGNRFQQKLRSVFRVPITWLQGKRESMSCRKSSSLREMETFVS
Description: biochemical. Particulars: test concentrations 1, 10, 100 and 1000 nM; ligand 125I CGP 42112A; C21* = mean of runs; read-out: AT2 GraFit IC50. Type of data set: binding.

Data set [5] deals with T2, human recombinant AT1 receptor (Homo sapiens, UniProt P30556).
T2 construct: Eurofins protocol ITEM24
T2 sequence (P30556 1-359): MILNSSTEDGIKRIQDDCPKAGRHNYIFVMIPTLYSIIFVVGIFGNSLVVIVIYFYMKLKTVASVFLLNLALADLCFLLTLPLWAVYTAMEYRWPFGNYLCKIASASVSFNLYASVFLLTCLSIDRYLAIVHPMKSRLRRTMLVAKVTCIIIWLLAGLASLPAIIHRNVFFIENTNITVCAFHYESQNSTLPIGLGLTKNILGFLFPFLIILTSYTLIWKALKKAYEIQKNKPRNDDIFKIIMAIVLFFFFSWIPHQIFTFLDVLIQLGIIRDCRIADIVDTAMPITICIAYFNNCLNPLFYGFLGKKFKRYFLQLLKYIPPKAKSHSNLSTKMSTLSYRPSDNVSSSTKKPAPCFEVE
Description: Binding to AT1 receptor, radiometric scintillation assay (Eurofins ITEM24).

The next data set concerns the target T3, CYP1A (Homo sapiens, UniProt P05177).
T3 construct: using isoform-specific substrates incubated with human liver microsomes; tissue Eurofins protocol ITEMG232; host or cells: human liver microsomes
The data set is described as follows: CYP inhibition in human liver microsomes, phenacetin substrate. Type of data set: in vitro ADME. Particulars: probe phenacetin, read-out: CYP1A Inh %.

The target in the next data set is T4, CYP2B6 (Homo sapiens, UniProt P20813).
T4 construct: using isoform-specific substrates incubated with human liver microsomes; tissue Eurofins protocol ITEMG232; host or cells: human liver microsomes
T4 sequence (P20813 1-491): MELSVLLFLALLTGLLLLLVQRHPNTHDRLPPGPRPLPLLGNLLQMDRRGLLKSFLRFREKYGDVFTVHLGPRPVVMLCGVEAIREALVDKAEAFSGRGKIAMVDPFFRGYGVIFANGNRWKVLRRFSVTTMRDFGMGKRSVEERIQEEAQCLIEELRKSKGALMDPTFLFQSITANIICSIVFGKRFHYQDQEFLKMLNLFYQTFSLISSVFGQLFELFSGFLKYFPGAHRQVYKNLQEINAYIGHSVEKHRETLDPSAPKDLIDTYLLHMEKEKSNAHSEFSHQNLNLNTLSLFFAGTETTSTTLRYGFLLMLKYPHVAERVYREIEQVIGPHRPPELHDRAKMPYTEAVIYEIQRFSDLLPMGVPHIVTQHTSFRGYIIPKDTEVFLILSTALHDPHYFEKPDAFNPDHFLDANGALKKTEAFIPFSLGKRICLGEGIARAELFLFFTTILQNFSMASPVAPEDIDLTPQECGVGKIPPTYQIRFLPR
The data set is described as follows: CYP inhibition in human liver microsomes, bupropion substrate. Type of data set: in vitro ADME. Conditions: probe bupropion, read-out: CYP2B6 Inh %.

The next data set deals with T5, CYP2C19 (Homo sapiens, UniProt P33261).
T5 construct: using isoform-specific substrates incubated with human liver microsomes; tissue Eurofins protocol ITEMG232; host or cells: human liver microsomes
T5 sequence (P33261 whole entry, canonical isoform): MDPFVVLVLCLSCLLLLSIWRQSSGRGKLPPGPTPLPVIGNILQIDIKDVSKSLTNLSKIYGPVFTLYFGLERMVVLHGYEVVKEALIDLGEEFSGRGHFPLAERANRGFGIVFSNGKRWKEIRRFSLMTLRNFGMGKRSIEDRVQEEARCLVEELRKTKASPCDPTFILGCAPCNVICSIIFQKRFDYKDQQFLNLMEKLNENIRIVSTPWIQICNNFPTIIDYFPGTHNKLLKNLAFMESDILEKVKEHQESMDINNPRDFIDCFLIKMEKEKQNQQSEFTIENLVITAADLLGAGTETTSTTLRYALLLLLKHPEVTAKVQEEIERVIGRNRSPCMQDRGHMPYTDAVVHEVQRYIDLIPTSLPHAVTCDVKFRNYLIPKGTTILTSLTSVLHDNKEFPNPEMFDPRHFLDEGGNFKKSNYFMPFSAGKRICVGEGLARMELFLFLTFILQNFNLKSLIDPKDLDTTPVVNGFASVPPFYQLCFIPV
The data set is described as follows: CYP inhibition in human liver microsomes, omeprazole substrate. Type of data set: in vitro ADME. Conditions: probe omeprazole, read-out: CYP2C19 Inh %.

The target of a further data set is T6, CYP2C8 (Homo sapiens, UniProt P10632).
T6 construct: using isoform-specific substrates incubated with human liver microsomes; tissue Eurofins protocol ITEMG232; host or cells: human liver microsomes
T6 sequence (P10632 1-490): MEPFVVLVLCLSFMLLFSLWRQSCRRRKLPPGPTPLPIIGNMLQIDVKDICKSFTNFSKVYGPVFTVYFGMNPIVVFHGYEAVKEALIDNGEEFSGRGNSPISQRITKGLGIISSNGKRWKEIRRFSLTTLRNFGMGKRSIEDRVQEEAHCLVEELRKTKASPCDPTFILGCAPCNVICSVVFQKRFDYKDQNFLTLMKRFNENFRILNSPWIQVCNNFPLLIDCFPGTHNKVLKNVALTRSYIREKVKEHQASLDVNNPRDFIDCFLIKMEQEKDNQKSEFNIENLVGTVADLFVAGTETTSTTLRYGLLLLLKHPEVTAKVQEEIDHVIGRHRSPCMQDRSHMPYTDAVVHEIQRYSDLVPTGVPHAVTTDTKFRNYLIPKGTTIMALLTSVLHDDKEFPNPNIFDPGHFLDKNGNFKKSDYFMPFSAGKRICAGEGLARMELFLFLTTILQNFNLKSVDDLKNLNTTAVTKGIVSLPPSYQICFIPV
The data set is described as follows: CYP inhibition in human liver microsomes, paclitaxel and amodiaquine substrates. Type of data set: in vitro ADME. Particulars: probe paclitaxel and amodiaquine, read-out: CYP2C8 Inh %.

Another data set has as its target T7, CYP2C9 (Homo sapiens, UniProt P11712).
T7 construct: using isoform-specific substrates incubated with human liver microsomes; tissue Eurofins protocol ITEMG232; host or cells: human liver microsomes
The data set is described as follows: CYP inhibition in human liver microsomes, diclofenac substrate. Type of data set: in vitro ADME. Particulars: probe diclofenac, read-out: CYP2C9 Inh %.

Another data set has as its target T8, CYP2D6 (Homo sapiens, UniProt P10635).
T8 construct: tissue Eurofins protocol ITEMG232; host or cells: human liver microsomes
Description: CYP inhibition in human liver microsomes, dextromethorphan substrate. Type of data set: in vitro ADME. Particulars: probe dextromethorphan, read-out: CYP2D6 Inh %.

The next data set addresses T9, CYP3A4 (Homo sapiens, UniProt P08684).
T9 construct: using isoform-specific substrates incubated with human liver microsomes; tissue Eurofins protocol ITEMG232; host or cells: human liver microsomes
The data set is described as follows: CYP inhibition in human liver microsomes, midazolam substrate. Type of data set: in vitro ADME. Particulars: probe midazolam, read-out: CYP3A4 midazolam Inh %.

Here are results for 3 molecules from patent US20240174657A1, “SELECTIVE ANGIOTENSIN II RECEPTOR LIGANDS” (priority 2021, published 2024).

T3 sequence (P05177 whole entry, canonical isoform): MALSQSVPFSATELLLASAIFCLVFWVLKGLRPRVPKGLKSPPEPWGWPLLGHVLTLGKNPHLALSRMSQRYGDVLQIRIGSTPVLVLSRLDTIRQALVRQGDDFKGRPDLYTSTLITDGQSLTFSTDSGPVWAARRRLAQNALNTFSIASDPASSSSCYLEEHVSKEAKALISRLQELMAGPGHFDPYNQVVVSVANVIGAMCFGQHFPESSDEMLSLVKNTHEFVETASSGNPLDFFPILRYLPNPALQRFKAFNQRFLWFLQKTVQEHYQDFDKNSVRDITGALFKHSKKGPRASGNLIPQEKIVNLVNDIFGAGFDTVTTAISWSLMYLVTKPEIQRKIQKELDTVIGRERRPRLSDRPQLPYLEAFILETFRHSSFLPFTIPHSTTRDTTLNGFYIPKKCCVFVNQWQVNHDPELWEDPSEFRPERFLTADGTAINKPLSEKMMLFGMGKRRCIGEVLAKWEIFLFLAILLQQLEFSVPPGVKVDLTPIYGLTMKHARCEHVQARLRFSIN
T9 sequence (P08684 whole entry, canonical isoform): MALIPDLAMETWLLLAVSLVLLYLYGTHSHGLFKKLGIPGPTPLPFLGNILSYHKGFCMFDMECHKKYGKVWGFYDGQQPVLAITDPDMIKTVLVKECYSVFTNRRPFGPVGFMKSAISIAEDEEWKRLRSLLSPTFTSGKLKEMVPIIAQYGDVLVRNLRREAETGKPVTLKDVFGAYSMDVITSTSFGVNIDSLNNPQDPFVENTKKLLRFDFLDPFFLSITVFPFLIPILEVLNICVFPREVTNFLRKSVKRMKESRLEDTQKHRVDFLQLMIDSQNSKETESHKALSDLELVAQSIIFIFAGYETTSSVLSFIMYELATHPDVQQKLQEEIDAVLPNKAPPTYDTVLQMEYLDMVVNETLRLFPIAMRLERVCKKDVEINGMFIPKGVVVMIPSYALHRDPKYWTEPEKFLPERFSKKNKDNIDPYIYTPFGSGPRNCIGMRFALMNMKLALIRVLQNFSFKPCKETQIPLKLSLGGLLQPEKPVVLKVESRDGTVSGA
T7 sequence (P11712 whole entry, canonical isoform): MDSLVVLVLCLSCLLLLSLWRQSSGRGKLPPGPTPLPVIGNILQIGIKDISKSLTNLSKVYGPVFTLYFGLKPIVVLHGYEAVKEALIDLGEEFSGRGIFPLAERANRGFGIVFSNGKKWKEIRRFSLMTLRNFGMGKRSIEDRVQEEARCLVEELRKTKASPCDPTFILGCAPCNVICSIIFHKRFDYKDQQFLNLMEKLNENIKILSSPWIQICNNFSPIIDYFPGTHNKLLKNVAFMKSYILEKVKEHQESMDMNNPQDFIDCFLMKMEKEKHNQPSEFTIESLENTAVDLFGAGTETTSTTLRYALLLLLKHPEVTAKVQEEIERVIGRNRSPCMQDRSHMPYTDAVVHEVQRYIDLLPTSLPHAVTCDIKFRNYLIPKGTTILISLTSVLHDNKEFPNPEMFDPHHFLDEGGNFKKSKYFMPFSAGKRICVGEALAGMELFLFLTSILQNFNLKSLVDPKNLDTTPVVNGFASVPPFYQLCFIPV
T8 sequence (P10635 whole entry): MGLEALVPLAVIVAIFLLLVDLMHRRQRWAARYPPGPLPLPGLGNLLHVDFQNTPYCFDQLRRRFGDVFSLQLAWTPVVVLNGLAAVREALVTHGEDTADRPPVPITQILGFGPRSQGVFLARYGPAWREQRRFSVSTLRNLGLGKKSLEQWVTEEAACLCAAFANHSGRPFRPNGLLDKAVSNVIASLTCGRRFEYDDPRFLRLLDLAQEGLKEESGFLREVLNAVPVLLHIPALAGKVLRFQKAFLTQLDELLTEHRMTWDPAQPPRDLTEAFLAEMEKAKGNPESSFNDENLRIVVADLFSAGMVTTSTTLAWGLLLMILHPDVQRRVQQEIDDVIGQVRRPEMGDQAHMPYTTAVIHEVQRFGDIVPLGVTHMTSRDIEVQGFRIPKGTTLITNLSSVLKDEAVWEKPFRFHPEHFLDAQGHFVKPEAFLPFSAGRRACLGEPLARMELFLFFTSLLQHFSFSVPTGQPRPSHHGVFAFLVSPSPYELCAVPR

As for `CCCCOC(=O)NS(=O)(=O)c1sc(CC(C)C)cc1-c1ccc(Cn2ccnc2)cc1` [Example C21, N-butyloxycarbonyl-3-(4-imidazol-1-ylmethylphenyl)-5-isobutylthiophene-2-sulfon-amide], the inhibition at 10 µM in the data set on CYP3A4&5 is 94%. Further, the “inhibition of Cytochrome P450 enzymes (in words)” value in data set [1] is “potent inhibitor”. In addition, in [2], the “metabolic hydrolysis (in words)” value was “rapidly hydrolysed to an inactive sulfonamide metabolite”.

`Cc1nccn1Cc1c(F)cc(-c2cc(CC(C)C)sc2S(=O)(=O)NC(=O)NCCO)cc1F` [Example 5, 1-[[3-[3,5-Difluoro-4-[(2-methylimidazol-1-yl)methyl]phenyl]-5-isobutyl-2-thienyl]sulfonyl]-3-(2-hydroxyethyl)urea]: the “T1/2, + NaDPH” value in data set [3] is over 1 h. Further, the half-life at 1 uM in [3] is over 1 h. Further, the IC50 amounted to 0.0184 µM in [4] and 49 µM in data set [5]. Also, the inhibition at 10 µM on CYP1A was 8%; on CYP2B6, 27.4%; at CYP2C19, -30.1%; on CYP2C8 it was 36.2%; at CYP2C9, 38%; on CYP2D6, 36.3%. Moreover, the results for the inhibition at 10 µM at CYP3A4 and in the data set with CYP3A4&5 were 44.6% and 27.5%, respectively.

Turning to `Cc1nccn1Cc1ccc(-c2cc(CC(C)C)sc2S(=O)(=O)NC(=O)NCC(C)(C)O)cc1F` [Example 3, 1-[[3-[3-Fluoro-4-[(2-methylimidazol-1-yl)methyl]phenyl]-5-isobutyl-2-thienyl]sulfonyl]-3-(2-hydroxy-2-methyl-propyl)urea], the “T1/2, + NaDPH” value in data set [3] is over 1 h. For the same molecule, the half-life at 1 uM in data set [3] was over 1 h. The IC50 stood at 0.0054 µM in data set [4] and 23 µM in [5]. The inhibition at 10 µM on CYP1A was 15.5%; on CYP2B6, 22.6%; at CYP2C19, 21.2%; on CYP2C8, 28%; at CYP2C9 it was 31.8%; at CYP2D6, 38%. The inhibition at 10 µM at CYP3A4 came out at 52.8%; in the data set on CYP3A4&5, 29.7%.
